Where “and” joins values, the source holds several entries; their conditions need not be identical. Equal values may be shown once. Read-outs that look alike come from different tables or passages of the source.
What was measured:
[1] = target: T1, T. brucei phosphofructokinase (TbPFK) (Trypanosoma brucei brucei, UniProt O15648); assay: ADP-Glo assay for measuring PFK inhibition; assay type: biochemical; conditions: for RLU, avg / RLU, individual replicates: SuppFig1
T1 construct: made in house; host or cells: Escherichia coli C41 (pET28a, codon optimised gene)
T1 sequence (O15648 1-487): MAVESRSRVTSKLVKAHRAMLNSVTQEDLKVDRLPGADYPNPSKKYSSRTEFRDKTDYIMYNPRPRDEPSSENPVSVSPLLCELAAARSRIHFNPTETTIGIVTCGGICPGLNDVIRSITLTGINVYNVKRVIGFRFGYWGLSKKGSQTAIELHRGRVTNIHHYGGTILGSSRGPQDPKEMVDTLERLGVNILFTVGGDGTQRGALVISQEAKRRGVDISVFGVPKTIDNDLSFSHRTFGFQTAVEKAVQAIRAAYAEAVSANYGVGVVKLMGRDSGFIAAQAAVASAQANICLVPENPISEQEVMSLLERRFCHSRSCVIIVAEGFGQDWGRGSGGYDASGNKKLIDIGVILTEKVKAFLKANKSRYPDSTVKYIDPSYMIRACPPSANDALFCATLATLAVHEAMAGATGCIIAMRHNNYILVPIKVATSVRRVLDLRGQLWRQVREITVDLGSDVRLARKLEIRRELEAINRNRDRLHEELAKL
Protocol: Parasite enzyme kinetic data were measured using N-terminally His6-tagged TbPFK expressed in Escherichia coli C41 cells, using a codon optimised gene inserted in a pET28a vector (Supplementary Methods 1). Recombinant human PFKs were expressed in PFK-deficient Saccharomyces cerevisiae. PFK enzyme inhibition was measured using an ADP-Glo^TM assay (Promega) in a 96-well plate format (Supplementary Methods 2.1), using a Spectramax© M5 Multimode Plate Reader to measure luminescence values which were converted to ADP concentrations. IC50 values were determined using a sigmoidal curve fitting algorithm in Kaleidagraph 4 (Supplementary Fig. 1). Mode of action studies were carried out using a linked enzyme assay coupling the forward reaction of TbPFK to the M1 isoform of human pyruvate kinase followed by lactate dehydrogenase. The change in UV absorbance at 340 nm resulting from the conversion of NADH to NAD^+ was measured at 25 °C in ‘kinetic mode’ on a Spectramax© M5 Multimode plate reader. Initial velocities were plotted against substrate concentration to give curves showing non-competitive inhibition (Supplementary Fig. 2). An alternative linked enzyme assay was developed to control for the potential inhibitory activity of ATP on human PFK (Supplementary Methods 2.3).
The ADP-Glo™ end-point assay kit manufactured by Promega (cat. No. V9102) was used to measure ADP produced in the phosphofructokinase reaction:
Following this kinase reaction, the addition of a reagent results in any unused background ATP being removed and the reaction is sequestered. A second reagent is then added to convert the remaining ADP to ATP which is coupled to the luciferase/luciferin reaction to produce light. ‘Ultrapure’ ATP and ADP from Promega were used to reduce background noise. All reagents additional to those provided in the Promega ADP-Glo™ kit were purchased from Sigma-Aldrich.
The assay buffer comprised 50 mM triethanolamine (TEA), 10 mM MgCl2, 5 mM KCl, 0.1% w/v bovine serum albumin (BSA), 0.005% Tween-20, 1% DMSO, pH 7.4. A 3-fold serial dilution of 250x inhibitor stocks was carried out in 100% DMSO. 2 µl of these dilutions was added to 198 µl assay buffer and mixed well using a multichannel pipette. […] Concentration ranges of inhibitor compounds were 40 - 0.006 µM (final concentration, 1% DMSO). The PFK reaction in the presence of inhibitor was carried out using 10 µl of 1 µg/ml PFK (final concentration 0.4 µg/ml) which was added to 10 µl of the 1% DMSO inhibitor compound serial dilutions in a white, non-binding 96-well plate (Greiner BioOne 655904). CTCB-001 was used as a positive control at a final concentration of 5 µM. Assay buffer containing 1% DMSO was added instead of inhibitor compound for the negative control. The protein/inhibitor mixture was incubated for 10 minutes at room temperature (RT). The kinase reaction was started by adding a 5x ATP/F6P stock in assay buffer (final concentrations 0.5 mM F6P and 0.1 mM ATP). Plates were then sealed, centrifuged at 560 x g for 30 seconds and incubated at RT for 30 minutes. 25 µl of ‘ADP-Glo™ Reagent’ was then added to each well, mixed using a multichannel pipette and incubated at room temperature for 40 minutes. 50 µl of ‘Kinase Detection Reagent’ was added and incubated for 50 minutes at RT. The luminescence was recorded using a Spectramax© M5 Multi-mode Plate Reader (Molecular Devices) in single-point mode, with an integration time of 750 milliseconds. The luminescence values were converted to ADP concentration using a standard calibration curve for ADP. The resulting ADP concentrations were plotted as a function of inhibitor compound concentration using Kaleidagraph 4.0 software. The data were analysed using non-linear regression and a sigmoidal curve was fitted (Supplementary Figure 1) to determine the IC50. Kaleidagraph 4.0 uses the Levenberg-Marquardt algorithm in an iterative procedure to fit non-linear curves. […] The slope of the curve at the midpoint (m4) was set to 1.

T. b. rhodesiense = assay: EC50 against in vitro cultured T. b. rhodesiense (STMI); assay type: cell-based; conditions: Trypanosoma brucei
T. b. gambiense = assay: EC50 against in vitro cultured T. b. gambiense (STMI); assay type: cell-based; conditions: Trypanosoma brucei
[2] = ADP-Glo, mean ± SD, read-out: IC50 (µM) for inhibition of T. brucei phosphofructokinase (PFK IC50)
[3] = source data, read-out: IC50 (µM), single dated measurement
[4] = source data for Fig. 2 and Table 1, read-out: Average IC50

SMILES: CN(C)CCn1ccc2c(ccn2Cc2ccc(Cl)c(Cl)c2)c1=O [CTCB 405]
- RLU, avg ([1]; Conc 0.00640146 uM): 39926.3 RLU
- RLU, individual replicates ([1]; Conc 0.00640146 uM): 40029.2 RLU and 39823.3 RLU
- RLU, avg ([1]; Conc 0.0192044 uM): 39977.3 RLU
- RLU, individual replicates ([1]; Conc 0.0192044 uM): 42153.7 RLU and 37800.9 RLU
- RLU, avg ([1]; Conc 0.0576132 uM): 34288.1 RLU
- RLU, individual replicates ([1]; Conc 0.0576132 uM): 36858 RLU and 31718.2 RLU
- RLU, avg ([1]; Conc 0.17284 uM): 23285 RLU
- RLU, individual replicates ([1]; Conc 0.17284 uM): 25069.7 RLU and 21500.2 RLU
- RLU, avg ([1]; Conc 0.518519 uM): 10488.4 RLU
- RLU, individual replicates ([1]; Conc 0.518519 uM): 11745.9 RLU and 9230.85 RLU
- RLU, avg ([1]; Conc 1.55556 uM): 4498.05 RLU
- RLU, individual replicates ([1]; Conc 1.55556 uM): 4537.49 RLU and 4458.6 RLU
- RLU, avg ([1]; Conc 4.66667 uM): 2709.41 RLU
- RLU, individual replicates ([1]; Conc 4.66667 uM): 2899.92 RLU and 2518.91 RLU
- RLU, avg ([1]; Conc 14 uM): 1717.44 RLU
- RLU, individual replicates ([1]; Conc 14 uM): 1947.39 RLU and 1487.48 RLU

SMILES: CN(C)CCn1ccc2c(ccn2Cc2ccc(Cl)c(Cl)c2)c1=O [CTCB-405, 1-[(3,4-Dichlorophenyl)methyl]-5-[2-(dimethylamino)ethyl] pyrrolo[3,2-c]pyridin-4-one]
- EC50 (T. b. rhodesiense): 250 nM
- EC50 (T. b. gambiense): 190 nM
- IC50 [1, 2]: 0.18 ± 0.03 µM
- IC50 [1, 3]: 0.209 µM and 0.202 µM and 0.134 µM and 0.19 µM

SMILES: CNCCn1ccc2c(ccn2Cc2ccc(Cl)c(Cl)c2)c1=O [CTCB-435]
- IC50 [1, 4]: 0.12 µM
- IC50 [1, 3]: 0.111 µM and 0.127 µM

SMILES: CN(C)CCn1ccc2c(ccn2Cc2ccc(Cl)c(Br)c2)c1=O [CTCB-470, 1-[(3-Bromo-4-chlorophenyl)methyl]-5-[2-(dimethylamino)ethyl] pyrrolo[3,2-c]pyridin-4-one]
- EC50 (T. b. rhodesiense): 280 nM
- EC50 (T. b. gambiense): 140 nM
- IC50 [1, 4]: 0.21 µM
- IC50 [1, 3]: 0.137 µM and 0.154 µM and 0.209 µM and 0.359 µM

SMILES: CN(C)CCn1ccc2c(ccn2Cc2ccc(F)c(Br)c2)c1=O [CTCB-508, 1-[(3-Bromo-4-fluorophenyl)methyl]-5-[2-(dimethylamino)ethyl] pyrrolo[3,2-c]pyridin-4-one]
- IC50 [1, 2]: 0.2 ± 0.05 µM
- IC50 [1, 3]: 0.13 µM and 0.229 µM and 0.25 µM
